Patent US8362256B2, “Salts of N-[4-(1-cyanocyclopentyl)phenyl]-2-(4-pyridylmethyl)amino-3-pyridinecarboxamide” (Jiangsu Hengrui Medicine Co. Ltd., priority 2008, dated 2013)
Where “and” joins values, the source holds several entries; their conditions need not be identical. Identical values can stand only once. Like-named read-outs stand apart in the source and are kept apart here.

Key:
colon cancer Ls174t = details: cited from earlier work
[1] = Stability in different conditions, content by HPLC; assay type: physicochemical; details: for content after 6 Months Under Light / content after 6 Months at 60° C. / content after 6 Months at Room Temperature: HPLC, initial purity 99.6%
VEGFR-2 = VEGFR-2 (Homo sapiens, UniProt P35968); details: enzyme level tests in different laboratories; cited from earlier work
[2] = Bioavailability of compound A by oral administration (Example 4); assay type: in vivo, Sprague-Dawley (SD) rats; details: SD rats
Description: (§1) I. Analysis Condition of LC/MS/MS
(§2) Analysis Condition of Liquid Chromatography
(§3) Column temperature: 25° C.;
(§4) A: 25%+B: 75%, constant gradient elution;
(§5) Analysis time: 3 minutes.
Only after one week adaption, the rats could be used to conduct pharmacokinetics animal experiment.
The blood samples were collected into test tubes containing heparin added in advance, and then centrifuged to produce plasma. […] Euthanasia was performed on used rats with CO2 gas.

Solubility = assay type: physicochemical
[3] = system: non-small cell lung cancer A549; details: cited from earlier work
[4] = system: kinases Ret, VEGFR-1, PDGFR-β, c-kit, cSRC; details: cited from earlier work
in vivo = details: rat, po, 1 mmol/kg
Text: Male Sprague-Dawley (SD) rats (weight: about 250 g, experimental animal certification of fitness: 0006473) were purchased from Shanghai Slaccas experimental animals limited liability company (certification number: SCXK (Hu) 2003-0003). The relevant qualifications and state of health of the SD rats were checked first, and the eligible ones were placed into the clean grade chambers of rats in Shanghai institute of Materia Medica.
as §1, §2
Chromatographic column: Agilent Zorbax SB-C18 column (50 mm×2.1 mm ID);
as §3
Mobile phase: A: H2O—CH3CN (2:98, v/v), B: H2O—CH3CN (10:90, v/v)
as §4, §5
The light circle was switched to 12/12 hour day/night in the clean grade chambers of rats. Humidity and temperature were 40-60% and 20-24° C., respectively. Every 4 rats were raised in a 36×24×19 cm^3 stainless rat cage. The rats took water freely and were fed special rat food regularly once daily. Only after one week adaption, the rats were used to conduct pharmacokinetics studies. 12 Sprague-Dawley rats were divided into 4 groups, 3 for each group.
The blood samples were collected 0 hour before the administration and 0.083, 0.25, 0.5, 1.0, 2, 4, 6, and 8 hours after the administration. The blood samples were collected at 250˜300 μL at each time point from posterior venous sinus of the eye after respiration anaesthesia with ether (the degree of anaesthesia was highly controlled). The blood was collected into test tubes containing heparin, and then was centrifuged to produce plasma. The obtained plasma was divided into 2 parts (50 μL for each part) and stored at −70° C. until analysis. […] After experiments, euthanasia was performed with CO2 gas.
Pharmacokinetics parameters of animal experiment of each group were calculated using InnaPhase Kinetica™ software (America).

[5] = system: human colon cancer Ls174t; assay: Efficacy on human colon cancer Ls174t transplanted in nude mice; details: for Weight after Removing Tumor, d0 / TV x ± SD, d0: d0 baseline; for RTV x ± SD / T/C / TV x ± SD, dn: dn 14 days; for Weight after Removing Tumor, dn: dn 14 days after first administration
Description: BALB/cA-nude mice, ♀, 5-6 weeks-old, available from Shanghai Slaccas experimental animals limited liability company. […] Rearing environment: SPF grade.
(§6) After one week adaption, the experimental animals were subcutaneously inoculated with human colon cancer Ls174t tumor tissues. When the tumors grew to 100-300 mm^3, the animals were randomly divided into several groups in day 0 (d0). […] The volumes of tumors and the weights of mice were measured 2-3 times every week, the data of which were recorded. The equation for the calculation of volume of tumors (V) is: V=½×a×b^2 wherein a and b represent length and width, respectively.

c-Src = c-Src (Homo sapiens, UniProt P12931); assay: ELISA tyrosine kinase inhibition; assay type: biochemical; details: concentration increased to 10^4 nM
Description: Phosphorylation of substrate was determined with monoclonal antibody of anti-phosphorylation tyrosine (PY99). Goat anti-mouse IgG marked with HRP was then added, and the degree of phosphorylation of substrate was determined with OPD coloration. At the same time, the control group without tyrosine kinase and control wells of corresponding DMSO concentration were set up. 2 M of H2SO4 was added in 50 μl/well to terminate the reaction. Data was read with adjustable wavelength micro plate enzyme-labeling instrument VERSAmax (Sunnyvale, Calif., U.S.A.), followed by visualization reaction, OD490 nm value was then observed.
Relative inhibition rate of drugs on tyrosine kinase protein was determined.

[6] = 75 mg/kg; initial tumor volume 25-100 mm3; 28 days or more; cited from earlier work
human colon cancer HT-29 = assay: Efficacy on human colon cancer HT-29 transplanted in nude mice
Description: BALB/cA-nude mice, ♀, 5-6 weeks-old, purchased from Shanghai Slaccas experimental animals limited liability company. […] Rearing environment: SPF grade.
as §6, with “HT-29” for “Ls174t”, “groups.” for “groups in day 0 (d0).”, “Volume” for “The volumes”, “weight” for “the weights”, “a,” for “a and”

[7] = oral 20 mg/kg, individual rats, 20 mg/kg
[8] = 50 mg/kg p.o. once daily d0-d13
[9] = 100 mg/kg p.o. once daily d0-d13
[10] = 200 mg/kg p.o. once daily d0-d13
[11] = 200 mg/kg p.o. once daily d0-d20, dn 21 days

Sequence of VEGFR-2 (P35968 20-1356, species assumed): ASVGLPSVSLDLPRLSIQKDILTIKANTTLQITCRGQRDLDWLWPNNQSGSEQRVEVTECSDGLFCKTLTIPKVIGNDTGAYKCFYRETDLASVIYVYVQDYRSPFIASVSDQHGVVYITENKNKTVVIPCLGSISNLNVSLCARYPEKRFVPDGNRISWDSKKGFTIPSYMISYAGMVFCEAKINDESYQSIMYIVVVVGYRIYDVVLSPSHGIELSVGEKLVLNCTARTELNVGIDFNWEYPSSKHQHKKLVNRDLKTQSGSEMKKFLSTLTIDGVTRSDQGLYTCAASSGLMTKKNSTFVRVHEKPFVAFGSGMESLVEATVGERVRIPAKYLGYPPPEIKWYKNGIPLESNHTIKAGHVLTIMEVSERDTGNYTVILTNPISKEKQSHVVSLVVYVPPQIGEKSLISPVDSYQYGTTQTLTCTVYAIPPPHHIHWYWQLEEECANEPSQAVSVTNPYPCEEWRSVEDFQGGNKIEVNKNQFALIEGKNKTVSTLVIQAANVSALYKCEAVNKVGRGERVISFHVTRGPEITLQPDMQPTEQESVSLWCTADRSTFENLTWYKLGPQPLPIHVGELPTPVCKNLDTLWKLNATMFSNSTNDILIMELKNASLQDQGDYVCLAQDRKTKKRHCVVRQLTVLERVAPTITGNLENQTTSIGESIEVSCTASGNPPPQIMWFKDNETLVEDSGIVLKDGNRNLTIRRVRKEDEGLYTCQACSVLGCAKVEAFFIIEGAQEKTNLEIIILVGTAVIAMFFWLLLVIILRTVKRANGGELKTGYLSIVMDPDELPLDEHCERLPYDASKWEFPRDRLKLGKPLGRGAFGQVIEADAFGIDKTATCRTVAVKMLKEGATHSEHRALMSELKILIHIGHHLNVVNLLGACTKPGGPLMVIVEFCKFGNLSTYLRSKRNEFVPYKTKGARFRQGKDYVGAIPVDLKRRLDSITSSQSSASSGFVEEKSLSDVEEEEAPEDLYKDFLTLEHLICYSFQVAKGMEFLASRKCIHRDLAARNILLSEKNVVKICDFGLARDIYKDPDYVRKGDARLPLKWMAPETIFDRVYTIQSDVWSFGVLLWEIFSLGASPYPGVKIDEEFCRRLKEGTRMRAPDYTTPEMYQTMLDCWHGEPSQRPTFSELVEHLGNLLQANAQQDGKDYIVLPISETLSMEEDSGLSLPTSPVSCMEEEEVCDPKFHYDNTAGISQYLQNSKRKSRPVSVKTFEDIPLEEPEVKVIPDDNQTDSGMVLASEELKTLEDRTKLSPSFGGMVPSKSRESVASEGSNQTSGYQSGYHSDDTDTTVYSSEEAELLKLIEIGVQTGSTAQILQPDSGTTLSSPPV
Sequence of c-Src (P12931 whole entry, species assumed): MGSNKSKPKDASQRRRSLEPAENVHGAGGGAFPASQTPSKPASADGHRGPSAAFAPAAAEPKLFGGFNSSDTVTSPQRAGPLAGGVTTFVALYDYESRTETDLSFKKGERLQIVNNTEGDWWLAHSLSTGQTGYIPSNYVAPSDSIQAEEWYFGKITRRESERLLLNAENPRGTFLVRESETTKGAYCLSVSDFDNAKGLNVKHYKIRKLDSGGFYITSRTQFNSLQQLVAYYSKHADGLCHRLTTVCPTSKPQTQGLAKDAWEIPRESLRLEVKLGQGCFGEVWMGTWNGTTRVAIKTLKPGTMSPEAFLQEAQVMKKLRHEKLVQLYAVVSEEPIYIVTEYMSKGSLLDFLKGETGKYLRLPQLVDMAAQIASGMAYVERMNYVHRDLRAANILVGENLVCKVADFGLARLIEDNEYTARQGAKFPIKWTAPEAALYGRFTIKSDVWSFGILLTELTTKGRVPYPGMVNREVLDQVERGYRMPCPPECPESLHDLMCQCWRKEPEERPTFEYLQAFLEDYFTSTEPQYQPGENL

## N#CC1(c2ccc(NC(=O)c3cccnc3NCc3ccncc3)cc2)CCCC1 [Compound A, N-[4-(1-cyanocyclopentyl)phenyl]-2-(4-pyridylmethyl)amino-3-pyridine carboxamide]
Colon cancer Ls174t; combination with oxaliplatin
  efficacy in combination with oxaliplatin: improved
Colon cancer Ls174t; mouse, in vivo
  toxicity in combination with oxaliplatin: not increased
Colon cancer Ls174t; used alone, compared with PTK787
  efficacy on colon cancer Ls174t transplanted in nude mice: distinctly better than PTK787
[1]
  content after 6 Months Under Light: 95.2%
  content after 6 Months at 60° C.: 92.2%
  content after 6 Months at Room Temperature: 95.7%
VEGFR-2
  IC50: ~1 nM
[2]; oral 20 mg/kg, 3 rats
  CL, Mean ± SD: 1520 ± 393 mL/min/kg
  Kel, Mean ± SD: 0.426 ± 0.169 h⁻¹
  Vd, Mean ± SD: 300 ± 69.4 L/kg
[2]; [7]
  AUC0→8h: 295 ng·h/mL and 211 ng·h/mL
  CL: 1920 mL/min/kg and 1120 mL/min/kg and 1540 mL/min/kg
  Cmax: 68.9 ng/mL and 79.2 ng/mL
  Kel: 0.325 h⁻¹ and 0.622 h⁻¹ and 0.332 h⁻¹
  MRT: 3.38 h and 3.32 h
  T1/2: 1.12 h and 2.09 h
  Tmax: 1 h
  Vd: 366 L/kg and 228 L/kg and 308 L/kg
[2]; male, Sprague-Dawley, rat, plasma, po, 20 mg/kg, 3 rats, read-out: AUC0→8h, Mean ± SD
  AUC(0-t): 226 ± 63 ng·h/mL
[2]; male, Sprague-Dawley, rat, plasma, po, 20 mg/kg, 3 rats, read-out: Cmax, Mean ± SD
  Cmax: 69.6 ± 9.2 ng/mL
[2]; male, Sprague-Dawley, rat, plasma, po, 20 mg/kg, 3 rats, read-out: MRT, Mean ± SD
  MRT: 3.3 ± 0.09 h
[2]; male, Sprague-Dawley, rat, plasma, po, 20 mg/kg, 3 rats, read-out: T1/2, Mean ± SD (converted)
  half-life: 1.78 ± 0.57 h
[2]; male, Sprague-Dawley, rat, plasma, po, 20 mg/kg, 3 rats, read-out: Tmax, Mean ± SD
  Tmax: 1.33 ± 0.29 h
[2]; male, Sprague-Dawley, rat, plasma, po, 20 mg/kg, individual rats, read-out: AUC0→8h
  AUC(0-t): 172 ng·h/mL
[2]; male, Sprague-Dawley, rat, plasma, po, 20 mg/kg, individual rats, read-out: Cmax
  Cmax: 60.8 ng/mL
[2]; male, Sprague-Dawley, rat, plasma, po, 20 mg/kg, individual rats, read-out: MRT
  MRT: 3.2 h
[2]; male, Sprague-Dawley, rat, plasma, po, 20 mg/kg, individual rats, read-out: T1/2 (converted)
  half-life: 2.13 h
[2]; male, Sprague-Dawley, rat, plasma, po, 20 mg/kg, individual rats, read-out: Tmax
  Tmax: 1.5 h
Solubility
  Solubility in water: Insoluble
[3]; compared with PTK787
  efficacy on non-small cell lung cancer A549 transplanted in nude mice: distinctly better than PTK787
[3]; compared with ZD6474 at a customary dose
  maximum efficacy on A549: equivalent to ZD6474
[4]
  inhibition activity on kinases Ret, VEGFR-1, PDGFR-β, c-kit, cSRC: certain selective inhibition activity

## Cl.N#CC1(c2ccc(NC(=O)c3cccnc3NCc3ccncc3)cc2)CCCC1 [Hydrochloride of compound A]
[1]
  stability (conclusion of stability experiments): most satisfying
  content after 6 Months Under Light: 97.6%
  content after 6 Months at 60° C.: 94.7%
  content after 6 Months at Room Temperature: 98.2%
In vivo
  AUC0→8 h Mol dose: 17653 ± 3232 ng·h/mL
Solubility
  Solubility in water: very slightly

## N#CC1(c2ccc(NC(=O)c3cccnc3NCc3ccncc3)cc2)CCCC1.O=P(O)(O)O [Phosphate of compound A]
[1]
  content after 6 Months Under Light: 97.1%
  content after 6 Months at 60° C.: 94.2%
  content after 6 Months at Room Temperature: 97.3%
In vivo
  AUC0→8 h Mol dose: 9074 ± 6292 ng·h/mL
Solubility
  Solubility in water: Insoluble

## N#CC1(c2ccc(NC(=O)c3cccnc3NCc3ccncc3)cc2)CCCC1.O=C(O)CCC(=O)O [Succinate of compound A]
[1]
  content after 6 Months Under Light: 94.2%
  content after 6 Months at 60° C.: 93.8%
  content after 6 Months at Room Temperature: 96.2%

## Clc1ccc(Nc2nnc(Cc3ccncc3)c3ccccc23)cc1 [PTK787, reference compound]
[5]; [8]
  Weight after Removing Tumor, d0: 19.5 g
  RTV x ± SD: 9.4 ± 5.9
  T/C: 76.4%
  TV x ± SD, dn: 1425 ± 613
  Weight after Removing Tumor, dn: 17.6 g
[5]; 50 mg/kg p.o.
  TV x ± SD, d0: 171 ± 39
[5]; [9]
  Weight after Removing Tumor, d0: 19.3 g
  RTV x ± SD: 8.8 ± 3.5
  T/C: 71.5%
  TV x ± SD, dn: 1538 ± 402
  Weight after Removing Tumor, dn: 17.3 g
[5]; 100 mg/kg p.o.
  TV x ± SD, d0: 175 ± 43
[5]; [10]
  Weight after Removing Tumor, d0: 18.8 g
  RTV x ± SD: 7.4 ± 2.0
  TV x ± SD, dn: 1076 ± 198
  Weight after Removing Tumor, dn: 17.1 g
[5]; 200 mg/kg p.o.
  TV x ± SD, d0: 150 ± 25
[5]; 400 mg/kg
  efficacy at 400 mg/kg: did not increase significantly
[5]; Mus musculus, LS174T, read-out: ED50 on colon cancer Ls174t
  ED50: 459 mg/kg
[5]; mouse, in vivo
  tolerance at 400 mg/kg: could be tolerated by mice
c-Src
  inhibition on c-Src: no inhibition
[6]
  best T/C %: 40%
Human colon cancer HT-29; 200 mg/kg p.o. once daily d0-d20, d0 baseline
  Weight after Removing Tumor, d0: 15.9 g
Human colon cancer HT-29; [11]
  RTV x ± SD: 4.9 ± 1.36
  TV x ± SD, dn: 1185 ± 143
Human colon cancer HT-29; 200 mg/kg p.o. once daily d0-d20, dn 21 days after first administration
  Weight after Removing Tumor, dn: 13.9 g
Human colon cancer HT-29; 200 mg/kg p.o., d0 baseline
  TV x ± SD, d0: 252 ± 43
Human colon cancer HT-29; mouse, in vivo, po
  tolerance: well tolerated

## N#CC1(c2ccc(NC(=O)c3cccnc3NCc3ccncc3)cc2)CCCC1.O=C(O)/C=C\C(=O)O [Maleate of compound A]
[1]
  content after 6 Months Under Light: 94.2%
  content after 6 Months at 60° C.: 93.5%
  content after 6 Months at Room Temperature: 96.4%
In vivo
  AUC0→8 h Mol dose: 11697 ± 8807 ng·h/mL
Solubility
  Solubility in water: Insoluble
